Assay results taken from patent US20030134803A1, “Use of sulfonated compounds as a barrier contraceptive” (The Regents of the University of California, priority 2002, published 2003).

Legend:
sperm = sperm percent motility and progression scoring; type: cell-based, cynomolgus macaque; details: for effect on percentage of motile sperm and sperm progression: zona binding studies, 1.5 mg/ml, pre- or post-capacitation treatment
Procedure: Four adult male cynomolgus macaques which were caged individually at the California Regional Primate Research Center (CRPRC) in compliance with the Federal Animal Welfare Act and the NIH Guidelines for Care and Use of Laboratory Animals. The animals were maintained on a 12L:12D light cycle at 25-27° C. and were given a diet of Purina monkey chow and water ad libitum. Semen samples were collected by electroejaculation, e.g., as described in Sarason et al., The use of nonmetal electrodes in ejaculation of restrained but unanesthetized macaques, (1991) J. Med. Primatol., 20:122-125, into 15 ml centrifuge tubes containing 5 ml of Hepes-buffered BWW maintained at room temperature (RT). After 15-30 min, the coagulum was removed, the semen samples were further diluted with an additional 5 ml of Hepes-buffered BWW containing 3 mg/ml bovine serum albumin (BSA) and then concentrated into a 1 ml pellet by centrifugation at 300×g for 10 minutes. LSA (previously dissolved in hepes-buffered BWW salts) was added to half of the pellet to give a final concentration of 1.5 mg LSA/ml of sperm. An equal volume of hepes-buffered BWW salts was added to the other half of the pellet. Both aliquots were incubated at room temperature for 40 minutes and then washed and capacitated, e.g., as described in Tollner T L, et al., Soybean trypsin inhibitor as a probe for the acrosome reaction in motile cynomolgus macaque sperm (2000) Zygote 8:127-137. Briefly, sperm were centrifuged through 3.5 ml of 80% Percoll for 25 minutes at 400 g. The supernatant containing Percoll and any remaining sperm was removed and the sperm pellet was resuspended in bicarbonate-buffered BWW, e.g., as described in Overstreet et al., Penetration of human spermatozoa into the human zona pellucida and the zona-free hamster egg: a study of fertile donors and infertile patients, (1980), Fertil. Steril., 33:534-542; and, Overstreet et al., In vitro capacitation of human spermatozoa after passage through a column of cervical mucus, (1980) Fert. Steril., 34:604-606, containing 30 mg/ml of BSA. Sperm were washed two more times by centrifugation at 300 g for 10 minutes and dilution in this medium. […] Following activation, 200 sperm per treatment were scored for percent motility at 200× magnification with phase-contrast optics using a BH-2 series Olympus microscope. Progression was assessed with a 0-4 rating system (0=no progressive sperm; 1=1-25% of motile sperm have forward (space gaining) progressive motility; 2=26-50% of motile sperm have forward progressive motility; 3=51-75% of motile sperm have forward progressive motility; 4=76-100% of motile sperm have forward progressive motility).

[1] = tested on: zona pellucida of immature oocytes; assay: sperm-zona pellucida binding assay (ZBA); type: cell-based, cynomolgus macaque
[2] = oral; cited from earlier work
mature oocytes = assay: in vitro fertilization (IVF) with treated sperm; type: cell-based, cynomolgus macaque; details: 1.5 mg/ml
[3] = 1.5 mg/ml added post-capacitation (PC, Post-C), after activation
[4] = 1.5 mg/ml added pre-capacitation (Pre-C, pre-wash PW), prior to washing through Percoll and overnight incubation

Row | Substance | effect on percentage of motile sperm and sperm progression (sperm) | inhibition of sperm-zona binding as compared to controls [1, 3] [%] | inhibition of sperm-zona binding as compared to controls [1, 4] [%] | effect on sperm motility in IVF (sperm; IVF sperm preparations) | percentage of sperm developing hyperactivated motility patterns consistent with capacitation (sperm; LSA-treated and control sperm) [%] | LD50 [2] [mg/kg] | fertilization in IVF trials (mature oocytes; post-capacitation (Post-C, PC) treatment) | fertilization in IVF trials (mature oocytes; pre-capacitation (prewash, PW, Pre-C) treatment) | binding of treated sperm to the zona pellucida of immature oocytes (in words) ([1]; treatment post-capacitation (PC) or pre-wash (PW), FIG. 3)
1 | Fucoidan [reference compound] | No motility changes were observed | 91.5 | 36 | – | – | – | – | – | –
2 | Lignosulfonic acid [LSA] | Neither the percentage of motile sperm or sperm progression were effected | 92.5 | 82.5 | no difference between treatments on sperm motility | > 75 | > 40000 | blocked fertilization | blocked fertilization | –
3 | polyanetholesulfonic acid [PASA] | – | – | – | – | – | – | – | – | inhibited their binding to the zona pellucida
